Experimental data published in the NIST ThermoML archive (doi:10.1016/j.jct.2012.12.026).
± gives the expanded uncertainty stated by the source.

Settings: Liquid, Closed cell (Static) method

SMILES | vapor or sublimation pressure (278.15 K) | vapor or sublimation pressure (288.15 K) | vapor or sublimation pressure (258.15 K) | vapor or sublimation pressure (268.15 K)
FC(F)C(F)F [1,1,2,2-tetrafluoroethane] | 271.3 ± 1.3 kPa | 382.9 ± 1.5 kPa | – | –
F/C=C/C(F)(F)F [trans-1,3,3,3-tetrafluoropropene] | 259.2 ± 1.1 kPa | 364.2 ± 1.1 kPa | 120.2 ± 1 kPa | 179.3 ± 1 kPa
